Results as given in ChEMBL document CHEMBL1201862, “PubChem BioAssay data set” (2004).
Values belong to the molecule of their own block, whether it stands above or below them. Calls of active or inactive are those of the source.

How the values were obtained:
[1] = target: T1, Microphthalmia-associated transcription factor (Homo sapiens, UniProt O75030); assay: reducers of TRPM1 reporter luminescence, concentration series – cell-based, SK-MEL-5, cherry-picked, set 3, MITF inhibitor project, dose response (AID 493073); assay type: functional;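 further: SK-MEL-5 melanoma cells with luciferase driven by the MITF target TRPM1 promoter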
T1 sequence (O75030 whole entry): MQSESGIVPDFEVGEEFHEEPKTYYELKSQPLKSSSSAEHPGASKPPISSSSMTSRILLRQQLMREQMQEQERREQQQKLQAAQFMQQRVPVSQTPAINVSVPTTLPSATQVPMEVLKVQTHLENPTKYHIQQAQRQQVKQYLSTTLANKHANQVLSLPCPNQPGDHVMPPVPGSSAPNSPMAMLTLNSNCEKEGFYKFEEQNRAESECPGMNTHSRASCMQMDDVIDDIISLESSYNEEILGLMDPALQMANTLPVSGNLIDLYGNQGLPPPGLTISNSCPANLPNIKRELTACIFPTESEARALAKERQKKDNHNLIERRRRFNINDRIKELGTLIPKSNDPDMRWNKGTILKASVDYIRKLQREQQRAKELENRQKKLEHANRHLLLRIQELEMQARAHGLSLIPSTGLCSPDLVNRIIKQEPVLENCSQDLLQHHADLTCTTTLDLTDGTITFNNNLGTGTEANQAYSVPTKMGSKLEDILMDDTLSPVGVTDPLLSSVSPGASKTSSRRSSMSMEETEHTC

[2] = target: T2, Caspase-3 (Homo sapiens, UniProt P42574); assay: activators of human procaspase-3 D3A mutant – biochemical, absorbance, PC-3 D3A mutant, counter-screen for dual procaspase-3/7 activator project, dose response (AID 504328)
T2 sequence (P42574 whole entry): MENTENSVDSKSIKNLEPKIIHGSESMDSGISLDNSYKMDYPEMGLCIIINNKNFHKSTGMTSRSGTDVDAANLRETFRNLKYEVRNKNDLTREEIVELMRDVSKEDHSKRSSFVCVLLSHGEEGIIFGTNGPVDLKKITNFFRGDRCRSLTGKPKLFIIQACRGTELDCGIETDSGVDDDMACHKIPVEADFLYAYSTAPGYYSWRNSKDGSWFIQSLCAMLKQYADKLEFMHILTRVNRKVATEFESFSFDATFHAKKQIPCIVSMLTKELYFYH

[3] = target: T3, Heat shock factor protein 1 (Mus musculus, UniProt P38532); assay: decrease of HSF1-responsive luciferase luminescence – cell-based, NIH3T3, dose retest, confirmation (AID 2382); assay type: functional;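 further: NIH3T3 fibroblasts with HSF1-driven luciferase reporter stressed by proteasome inhibitor MG132; luminescence from HSF1-driven luciferase expression after 8 hours of MG132 stress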
T3 sequence (P38532 whole entry): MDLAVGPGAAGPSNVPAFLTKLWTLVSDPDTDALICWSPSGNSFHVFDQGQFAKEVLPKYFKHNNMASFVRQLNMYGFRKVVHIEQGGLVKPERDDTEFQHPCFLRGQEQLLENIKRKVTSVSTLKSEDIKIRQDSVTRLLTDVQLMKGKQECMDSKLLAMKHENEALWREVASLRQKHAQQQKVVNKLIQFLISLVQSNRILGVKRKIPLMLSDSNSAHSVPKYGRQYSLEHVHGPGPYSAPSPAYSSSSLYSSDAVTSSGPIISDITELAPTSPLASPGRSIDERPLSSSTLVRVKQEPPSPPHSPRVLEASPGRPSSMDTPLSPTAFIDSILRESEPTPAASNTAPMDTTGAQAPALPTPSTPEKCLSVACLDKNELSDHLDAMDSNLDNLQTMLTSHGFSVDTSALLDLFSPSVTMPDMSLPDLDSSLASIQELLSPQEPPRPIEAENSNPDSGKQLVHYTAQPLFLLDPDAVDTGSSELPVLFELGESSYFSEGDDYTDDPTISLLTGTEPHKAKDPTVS

[4] = target: Caspase-7 (Homo sapiens, UniProt P55210); assay: potency of procaspase-7 enzyme activation – biochemical, absorbance, human, dual procaspase-3/-7 activator project, dose response (AID 504330)
[5] = target: G2/mitotic-specific cyclin-B1 (Homo sapiens, UniProt P14635); assay: HeLa cell cycle G2/M accumulation – FACS, mechanism study for Wee1 degradation inhibitor project, late-stage follow-up, panel member Cyclin B Degradation (AID 2088)
[6] = target: Wee1-like protein kinase (Homo sapiens, UniProt P30291); assay: HeLa cell cycle G2/M accumulation – FACS, mechanism study for Wee1 degradation inhibitor project, late-stage follow-up, panel member Wee1 Degradation (AID 2088)
[7] = target: Heat shock protein HSP 90-alpha (Homo sapiens, UniProt P07900); assay type: functional, organism-based
[8] = target: Dual specificity tyrosine-phosphorylation-regulated kinase 1A (Rattus norvegicus, UniProt Q63470); assay type: biochemical, Homo sapiens
[9] = target: Cyclin-dependent kinase 5/CDK5 activator 1 (Homo sapiens, UniProt Q00535); assay: blockade of human CDK5 activity – biochemical, cherry-picked samples, set 2, dose response (AID 504545)
[10] = PhoP-dependent GFP reporter suppression – synthesized compounds, round 3, SAR follow-up (AID 434996); assay type: functional
[11] = target: Metabotropic glutamate receptor 4 (Rattus norvegicus, UniProt P31423); assay: Modulation of the Metabotropic Glutamate Receptor mGluR4: Rat PAM Potency. [Related pubchem assays (depositor defined):AID2437, AID2807]; assay type: functional
[12] = target: Metabotropic glutamate receptor 4 (Homo sapiens, UniProt Q14833); assay: Modulation of the Metabotropic Glutamate Receptor mGluR4: Potency at human mGluR4. Modulation of intracellular Ca2+ using Fluo-4, AM, in CHO expressing recombinant receptor [Related pubchem assays (depositor defined):AID2437, AID2807]; assay type: functional, cell-based
[13] = target: Eukaryotic translation initiation factor 4H (Homo sapiens, UniProt Q15056); assay: eIF4H binding inhibition – biochemical, uHTS, fluorescence polarization, translation initiation inhibitor project, primary screen (AID 2012)
[14] = target: Polyadenylate-binding protein 1 (Homo sapiens, UniProt P11940); assay: blockers of PABP interaction with poly(A) – biochemical, fluorescence polarization, […] (AID 2014)
Chain of Polyadenylate-binding protein 1 (P11940 whole entry): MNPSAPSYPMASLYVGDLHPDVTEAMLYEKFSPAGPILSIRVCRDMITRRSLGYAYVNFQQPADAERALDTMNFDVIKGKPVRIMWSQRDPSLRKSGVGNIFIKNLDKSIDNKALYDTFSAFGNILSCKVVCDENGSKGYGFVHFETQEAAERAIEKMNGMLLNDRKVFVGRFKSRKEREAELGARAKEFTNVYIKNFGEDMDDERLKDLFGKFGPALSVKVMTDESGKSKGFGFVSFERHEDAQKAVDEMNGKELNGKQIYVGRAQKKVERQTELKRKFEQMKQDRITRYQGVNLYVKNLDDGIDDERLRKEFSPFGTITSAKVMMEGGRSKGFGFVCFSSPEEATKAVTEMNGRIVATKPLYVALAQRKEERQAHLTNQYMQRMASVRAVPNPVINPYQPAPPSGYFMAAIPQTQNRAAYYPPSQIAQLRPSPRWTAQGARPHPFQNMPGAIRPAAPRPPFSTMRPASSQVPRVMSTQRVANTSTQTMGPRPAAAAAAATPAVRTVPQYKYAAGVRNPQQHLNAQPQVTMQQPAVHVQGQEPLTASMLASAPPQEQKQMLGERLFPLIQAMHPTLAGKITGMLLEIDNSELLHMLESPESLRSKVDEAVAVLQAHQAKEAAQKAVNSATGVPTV

Chain of Metabotropic glutamate receptor 4 (Rattus norvegicus, UniProt P31423) (P31423 whole entry): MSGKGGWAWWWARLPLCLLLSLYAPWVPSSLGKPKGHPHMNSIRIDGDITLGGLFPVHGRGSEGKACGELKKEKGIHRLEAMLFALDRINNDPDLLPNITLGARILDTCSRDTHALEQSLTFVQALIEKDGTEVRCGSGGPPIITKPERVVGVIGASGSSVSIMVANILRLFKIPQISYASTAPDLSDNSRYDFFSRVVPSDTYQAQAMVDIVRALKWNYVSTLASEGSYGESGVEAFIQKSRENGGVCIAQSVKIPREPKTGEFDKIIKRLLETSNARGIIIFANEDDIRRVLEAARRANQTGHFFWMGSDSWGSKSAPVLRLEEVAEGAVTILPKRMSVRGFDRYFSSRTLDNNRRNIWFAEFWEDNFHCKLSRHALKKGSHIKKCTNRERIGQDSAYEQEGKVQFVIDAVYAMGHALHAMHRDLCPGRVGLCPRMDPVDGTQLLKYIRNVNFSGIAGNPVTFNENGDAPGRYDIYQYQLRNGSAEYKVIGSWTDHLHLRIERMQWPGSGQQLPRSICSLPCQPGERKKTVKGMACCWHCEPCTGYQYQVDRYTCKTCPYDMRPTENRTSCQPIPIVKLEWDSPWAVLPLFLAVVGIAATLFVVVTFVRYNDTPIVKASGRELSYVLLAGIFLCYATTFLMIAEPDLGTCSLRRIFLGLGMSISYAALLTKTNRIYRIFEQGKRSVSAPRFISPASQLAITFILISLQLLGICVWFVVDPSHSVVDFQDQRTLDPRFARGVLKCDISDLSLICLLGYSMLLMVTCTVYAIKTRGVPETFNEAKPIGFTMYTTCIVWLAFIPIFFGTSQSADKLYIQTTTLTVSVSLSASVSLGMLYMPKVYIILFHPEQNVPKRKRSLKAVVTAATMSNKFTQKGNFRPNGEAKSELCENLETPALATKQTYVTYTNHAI
Chain of Metabotropic glutamate receptor 4 (Homo sapiens, UniProt Q14833) (Q14833 whole entry): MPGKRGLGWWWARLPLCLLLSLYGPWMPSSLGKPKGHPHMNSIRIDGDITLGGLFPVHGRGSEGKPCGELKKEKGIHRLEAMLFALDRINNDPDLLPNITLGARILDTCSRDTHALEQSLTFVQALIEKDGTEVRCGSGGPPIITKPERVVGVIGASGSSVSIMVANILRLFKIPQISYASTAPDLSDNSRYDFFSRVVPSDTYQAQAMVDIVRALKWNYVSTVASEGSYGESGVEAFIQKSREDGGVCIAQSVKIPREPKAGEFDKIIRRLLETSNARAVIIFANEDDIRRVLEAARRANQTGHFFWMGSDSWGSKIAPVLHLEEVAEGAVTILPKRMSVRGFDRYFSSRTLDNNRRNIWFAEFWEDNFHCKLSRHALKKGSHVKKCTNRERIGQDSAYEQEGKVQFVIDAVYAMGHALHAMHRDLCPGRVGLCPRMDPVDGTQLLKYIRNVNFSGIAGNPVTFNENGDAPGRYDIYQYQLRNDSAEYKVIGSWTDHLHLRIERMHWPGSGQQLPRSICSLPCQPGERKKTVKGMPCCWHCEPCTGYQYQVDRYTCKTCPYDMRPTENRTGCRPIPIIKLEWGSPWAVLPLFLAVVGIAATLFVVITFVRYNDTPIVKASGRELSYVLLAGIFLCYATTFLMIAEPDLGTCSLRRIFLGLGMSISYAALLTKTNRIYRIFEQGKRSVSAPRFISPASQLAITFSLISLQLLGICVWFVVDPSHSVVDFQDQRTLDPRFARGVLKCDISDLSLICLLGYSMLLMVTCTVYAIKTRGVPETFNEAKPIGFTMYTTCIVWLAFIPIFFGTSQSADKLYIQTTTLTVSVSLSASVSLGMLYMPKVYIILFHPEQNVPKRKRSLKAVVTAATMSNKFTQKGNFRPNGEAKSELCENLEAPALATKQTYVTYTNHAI
Chain of Cyclin-dependent kinase 5/CDK5 activator 1 (Q00535 whole entry): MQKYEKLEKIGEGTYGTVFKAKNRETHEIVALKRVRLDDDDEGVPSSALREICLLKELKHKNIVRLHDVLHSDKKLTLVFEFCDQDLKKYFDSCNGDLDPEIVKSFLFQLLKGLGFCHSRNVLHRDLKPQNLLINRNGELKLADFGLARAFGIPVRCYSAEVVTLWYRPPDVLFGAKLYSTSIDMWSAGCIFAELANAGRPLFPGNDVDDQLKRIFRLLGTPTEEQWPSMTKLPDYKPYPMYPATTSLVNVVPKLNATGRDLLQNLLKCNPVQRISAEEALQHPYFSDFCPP
Chain of Cyclin-dependent kinase 5/CDK5 activator 1 (Q15078 whole entry, further chain): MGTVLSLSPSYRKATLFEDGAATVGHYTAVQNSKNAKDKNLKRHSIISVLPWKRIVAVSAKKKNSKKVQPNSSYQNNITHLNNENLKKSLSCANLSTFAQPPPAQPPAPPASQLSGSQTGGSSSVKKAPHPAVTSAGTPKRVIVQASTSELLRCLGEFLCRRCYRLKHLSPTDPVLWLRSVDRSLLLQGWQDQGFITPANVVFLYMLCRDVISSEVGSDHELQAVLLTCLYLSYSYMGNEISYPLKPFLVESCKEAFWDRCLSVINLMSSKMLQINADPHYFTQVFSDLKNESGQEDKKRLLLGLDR
Chain of G2/mitotic-specific cyclin-B1 (P14635 whole entry): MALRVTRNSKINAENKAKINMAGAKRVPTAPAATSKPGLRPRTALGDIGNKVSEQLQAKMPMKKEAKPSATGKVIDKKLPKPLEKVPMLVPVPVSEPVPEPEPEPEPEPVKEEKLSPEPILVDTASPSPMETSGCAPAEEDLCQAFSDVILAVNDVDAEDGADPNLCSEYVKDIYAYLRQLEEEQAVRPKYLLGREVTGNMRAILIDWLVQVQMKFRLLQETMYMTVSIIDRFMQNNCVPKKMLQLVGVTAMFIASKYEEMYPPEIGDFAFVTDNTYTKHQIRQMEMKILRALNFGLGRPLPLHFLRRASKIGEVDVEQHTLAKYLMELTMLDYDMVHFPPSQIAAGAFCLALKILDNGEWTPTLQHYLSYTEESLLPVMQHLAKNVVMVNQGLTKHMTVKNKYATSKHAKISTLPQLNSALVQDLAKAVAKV
Chain of Wee1-like protein kinase (P30291 whole entry): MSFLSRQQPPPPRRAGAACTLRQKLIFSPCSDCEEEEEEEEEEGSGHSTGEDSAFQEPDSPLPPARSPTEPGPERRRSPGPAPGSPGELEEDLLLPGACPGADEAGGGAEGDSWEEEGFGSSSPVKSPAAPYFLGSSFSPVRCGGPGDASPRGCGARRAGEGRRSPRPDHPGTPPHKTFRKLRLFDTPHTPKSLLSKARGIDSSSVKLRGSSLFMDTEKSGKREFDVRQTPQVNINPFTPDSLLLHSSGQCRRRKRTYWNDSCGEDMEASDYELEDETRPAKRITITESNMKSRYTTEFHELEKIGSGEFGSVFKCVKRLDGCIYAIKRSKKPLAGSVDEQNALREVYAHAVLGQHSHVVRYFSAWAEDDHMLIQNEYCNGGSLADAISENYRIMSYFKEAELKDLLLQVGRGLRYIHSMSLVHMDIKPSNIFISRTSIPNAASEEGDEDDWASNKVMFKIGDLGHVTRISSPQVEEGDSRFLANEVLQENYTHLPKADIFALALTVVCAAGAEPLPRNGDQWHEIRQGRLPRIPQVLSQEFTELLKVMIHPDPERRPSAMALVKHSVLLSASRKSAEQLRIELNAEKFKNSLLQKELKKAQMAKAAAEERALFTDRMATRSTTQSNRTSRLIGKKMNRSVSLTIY

Structure (SMILES): CCc1cccc(NC(=O)CCCOc2cc(=O)n(C)c3ccccc23)c1
EC50 [5]: > 49.7 µM (inactive) | EC50 [6]: > 49.7 µM (inactive)

Structure (SMILES): Nc1cc2c(cc1[N+](=O)[O-])-c1ccccc1C2=NO
AC50 [7]: 8.8 µM (active) | AC50 [8]: 0.143 µM (active) | AC50 [9]: 41.2 µM (active)

Structure (SMILES): COc1ccccc1CNC(=S)Nc1ccncc1
IC50 [10]: > 150 µM (active)

Structure (SMILES): CN(C)CCNc1c2c(nc3ccccc13)CCC2
IC50 [13]: 99.1 µM (active) | IC50 [14]: 32.8 µM (active)

Second part, the molecule after the results:

AC50 [1]: 46 µM (active) | EC50 [2]: > 85.3 µM (inactive) | EC50 [3]: > 195 µM (not active) | EC50 [4]: > 85.3 µM (inactive)
Structure (SMILES): O=C(Nc1ccc2c(c1)OCCO2)c1coc2ccccc2c1=O

EC50 [11]: 9.23 µM (active) | EC50 [12]: 12.7 µM (active)
Structure (SMILES): O=C(Nc1ccc(Cl)c(Cl)c1)c1ccsc1
